Laboratory results from DBAASP.
≈ marks a conversion by molar mass, not a printed value. Values belong to the molecule of their own block, whether it stands above or below them.

Legend:
Experiment in all cases: ≥ marks a high value that may be exact or a test limit, other limits are often not marked, values filed in µg/mL are converted to µM
[1] = test system: Escherichia coli ATCC 25922
[2] = test system: Staphylococcus aureus ATCC 43300
[3] = test system: Klebsiella pneumoniae ATCC 13883
[4] = test system: Pseudomonas aeruginosa ATCC 27853
[5] = test system: Staphylococcus epidermidis ATCC 12228
[6] = test system: Acinetobacter baumannii ATCC 19606
[7] = test system: Salmonella enterica subsp. enterica serovar Choleraesuis ATCC 10708
[8] = test system: Staphylococcus aureus ATCC 33591
[9] = test system: Staphylococcus aureus ATCC 29213
[10] = test system: Staphylococcus aureus USA 300
[11] = test system: Candida albicans ATCC 90028
[12] = test system: Staphylococcus aureus USA 100
[13] = test system: Candida albicans ATCC 10231
[14] = test system: Staphylococcus aureus ATCC 29737
[15] = test system: Candida albicans ATCC 18804
[16] = test system: Staphylococcus aureus ATCC 25923
[17] = test system: Listeria fleischmannii DSM 24998
[18] = test system: Staphylococcus aureus DSM 2569
[19] = test system: Listeria monocytogenes DSM 20600
[20] = test system: Micrococcus luteus DSM 20030
[21] = test system: Streptococcus mutans UA159
[22] = test system: Streptococcus sobrinus ATCC 6715
[23] = test system: Streptococcus sanguinis ATCC 10556
[24] = test system: Staphylococcus aureus
[25] = test system: Staphylococcus epidermidis
[26] = test system: Bacillus subtilis 168
[27] = test system: Escherichia coli B
[28] = test system: Pseudomonas aeruginosa
[29] = test system: Staphylococcus aureus 1
[30] = test system: Micrococcus luteus CCM 144
[31] = test system: Candida albicans F7-39/IDE99
[32] = test system: Staphylococcus aureus ATCC 6538
[33] = test system: Pseudomonas aeruginosa AB93066
[34] = test system: Pseudomonas aeruginosa ATCC 9027
[35] = test system: Staphylococcus aureus P1381
[36] = test system: Escherichia coli AB94012
[37] = test system: Staphylococcus aureus P1374
[38] = test system: Staphylococcus aureus AB94004
[39] = test system: Vibrio anguillarum ATCC 19264
[40] = test system: Lactococcus garvieae 00-1422
[41] = test system: Shigella flexneri ATCC 12022
[42] = test system: Aeromonas salmonicida NCTC 7812
[43] = test system: Enterococcus faecalis ATCC 29212
[44] = test system: Streptococcus iniae 00-1425

SMILES: CC[C@H](C)[C@H](NC(=O)[C@H](C)NC(=O)[C@H](CO)NC(=O)[C@@H]1CCCN1C(=O)[C@@H](NC(=O)[C@H](CC(C)C)NC(=O)[C@H](CO)NC(=O)[C@H](Cc1ccccc1)NC(=O)[C@H](CC(C)C)NC(=O)[C@@H](N)Cc1ccccc1)[C@@H](C)CC)C(=O)NCC(=O)NCC(=O)N[C@@H](CC(C)C)C(=O)N[C@H](C(=O)N[C@@H](CO)C(=O)N[C@@H](C)C(=O)N[C@@H](Cc1ccccc1)C(=O)N[C@@H](CCCCN)C(=O)O)[C@@H](C)CC [FLFSLIPSAIGGLISAFK]
MIC [1]: 50 µM (≈ 94.1 µg/mL)
MIC [2]: 5 µM (≈ 9.41 µg/mL)
MIC [3]: ≥ 60 µM
MIC [4]: 40 µM (≈ 75.3 µg/mL)
MIC [5]: 7.5 µM (≈ 14.1 µg/mL)
MIC [6]: 20 µM (≈ 37.6 µg/mL)
MIC [7]: ≥ 60 µM
MIC [8]: 5 µM (≈ 9.41 µg/mL)
MIC [9]: 5 µM (≈ 9.41 µg/mL)

SMILES: CC[C@H](C)[C@H](NC(=O)CNC(=O)[C@H](CC(N)=O)NC(=O)[C@H](Cc1c[nH]c2ccccc12)NC(=O)[C@@H](NC(=O)[C@@H](NC(=O)[C@H](CO)NC(=O)[C@H](CC(C)C)NC(=O)[C@@H](N)Cc1ccccc1)[C@@H](C)O)[C@@H](C)CC)C(=O)N[C@@H](CCCCN)C(=O)N[C@@H](CO)C(=O)N[C@@H](CC(C)C)C(=O)N[C@@H](Cc1ccccc1)C(N)=O [FLSTIWNGIKSLF]
MIC [17]: 15 µM (≈ 22.9 µg/mL)
MIC [18]: 8 µM (≈ 12.2 µg/mL)
MIC [19]: 15 µM (≈ 22.9 µg/mL)
MIC [20]: 4 µM (≈ 6.1 µg/mL)

SMILES: CC(C)[C@H](NC(=O)[C@H](CCCCN)NC(=O)[C@H](CCCCN)NC(=O)[C@H](C)NC(=O)[C@H](CCCCN)NC(=O)[C@H](CCCCN)NC(=O)[C@H](Cc1ccccc1)NC(=O)[C@H](Cc1ccccc1)NC(=O)[C@H](CCCCN)NC(=O)[C@H](CCCCN)NC(=O)[C@H](Cc1c[nH]c2ccccc12)NC(=O)CN)C(=O)NCC(=O)N[C@@H](CCCCN)C(=O)O [GWKKFFKKAKKVGK]
MIC [21]: ≥ 305 µM
MIC [22]: ≥ 305 µM
MIC [23]: ≥ 305 µM

SMILES: CC[C@H](C)[C@H](NC(=O)CN)C(=O)N[C@@H](CC(C)C)C(=O)N[C@@H](CO)C(=O)N[C@@H](CO)C(=O)N[C@@H](CC(C)C)C(=O)N[C@@H](CC(C)C)C(=O)N[C@@H](CCCCN)C(=O)N[C@@H](CCCCN)C(=O)N[C@@H](CC(C)C)C(=O)N[C@@H](CCCCN)C(=O)N[C@@H](CCCCN)C(=O)N[C@H](C(=O)N[C@H](C(=O)N[C@@H](C)C(=O)N[C@@H](CCCCN)C(N)=O)[C@@H](C)CC)[C@@H](C)CC [GILSSLLKKLKKIIAK]
MIC [2]: 16 µM (≈ 28 µg/mL)
MIC [24]: 5 µM (≈ 8.76 µg/mL)
MIC [25]: 1.8 µM (≈ 3.15 µg/mL)
MIC [26]: 7 µM (≈ 12.3 µg/mL)
MIC [4]: 5 µM (≈ 8.76 µg/mL)
MIC [27]: 8 µM (≈ 14 µg/mL)
MIC [28]: 7.5 µM (≈ 13.1 µg/mL)
MIC [29]: 3.8 µM (≈ 6.66 µg/mL)
MIC [30]: 3 µM (≈ 5.26 µg/mL)
MIC [31]: 10 µM (≈ 17.5 µg/mL)

SMILES: CC[C@H](C)[C@H](NC(=O)CNC(=O)[C@H](CCCN=C(N)N)NC(=O)[C@H](Cc1ccccc1)NC(=O)[C@@H](NC(=O)[C@H](Cc1cnc[nH]1)NC(=O)[C@H](Cc1cnc[nH]1)NC(=O)[C@H](Cc1ccccc1)NC(=O)[C@@H](N)Cc1ccccc1)[C@@H](C)CC)C(=O)N[C@H](C(=O)N[C@@H](Cc1cnc[nH]1)C(=O)N[C@H](C(=O)NCC(=O)N[C@@H](CCCCN)C(=O)N[C@H](C(=O)N[C@H](C(=O)N[C@@H](Cc1cnc[nH]1)C(=O)N[C@@H](CCCCN)C(=O)N[C@@H](CC(C)C)C(=O)N[C@H](C(=O)N[C@H](C(=O)NCC(=O)O)[C@@H](C)O)C(C)C)[C@@H](C)CC)[C@@H](C)O)C(C)C)C(C)C [FFHHIFRGIVHVGKTIHKLVTG]
MIC [1]: 4.91 µM (≈ 12.5 µg/mL)
MIC [39]: 4.91 µM (≈ 12.5 µg/mL)
MIC [40]: 0.61 µM (≈ 1.55 µg/mL)
MIC [41]: 2.46 µM (≈ 6.26 µg/mL)
MIC [42]: ≥ 78.6 µM
MIC [43]: 1.23 µM (≈ 3.13 µg/mL)
MIC [9]: 2.46 µM (≈ 6.26 µg/mL)
MIC [44]: 2.46 µM (≈ 6.26 µg/mL)

The remaining lines, values ahead:

MIC [1]: 15 µM (≈ 15.6 µg/mL)
MIC [10]: 12.5 µM (≈ 13 µg/mL)
MIC [11]: 1.56 µM (≈ 1.62 µg/mL)
MIC [12]: 12.5 µM (≈ 13 µg/mL)
MIC [13]: 3.75 µM (≈ 3.9 µg/mL)
MIC [5]: 3.75 µM (≈ 3.9 µg/mL)
MIC [14]: ≥ 60.1 µM
SMILES: CC[C@H](C)[C@H](N)C(=O)N[C@@H](CCCN=C(N)N)C(=O)N[C@H](C(=O)N[C@@H](CCCCN)C(=O)N[C@H](C(=O)N[C@@H](CCCN=C(N)N)C(=O)N[C@H](C(=O)N[C@@H](CCCCN)C(N)=O)[C@@H](C)CC)[C@@H](C)CC)[C@@H](C)CC [IRIKIRIK]

MIC [1]: 128 µM (≈ 220 µg/mL)
MIC [15]: ≥ 128 µM
MIC [16]: > 128 µM
SMILES: CC(C)C[C@H](NC(=O)[C@H](Cc1cnc[nH]1)NC(=O)[C@H](Cc1ccc(O)cc1)NC(=O)[C@H](CCCN=C(N)N)NC(=O)[C@H](Cc1ccc(O)cc1)NC(=O)[C@H](CCCCN)NC(=O)[C@@H](N)CCCCN)C(=O)N[C@@H](CCCCN)C(=O)N1CCC[C@H]1C(=O)N[C@@H](Cc1ccccc1)C(=O)N[C@@H](CO)C(=O)N[C@@H](CCCCN)C(=O)N[C@@H](CCCCN)C(N)=O [KKYRYHLKPFSKK]

MIC [1]: 62.4 µM (≈ 99.9 µg/mL)
MIC [32]: 7.8 µM (≈ 12.5 µg/mL)
MIC [33]: ≥ 62.4 µM
MIC [34]: 15.6 µM (≈ 25 µg/mL)
MIC [35]: 15.6 µM (≈ 25 µg/mL)
MIC [36]: 31.2 µM (≈ 50 µg/mL)
MIC [37]: 3.9 µM (≈ 6.25 µg/mL)
MIC [16]: 7.8 µM (≈ 12.5 µg/mL)
MIC [38]: 7.8 µM (≈ 12.5 µg/mL)
SMILES: CC[C@H](C)[C@H](NC(=O)[C@H](CO)NC(=O)[C@H](CCCCN)NC(=O)[C@@H](NC(=O)CNC(=O)[C@H](CCCCN)NC(=O)[C@H](Cc1c[nH]c2ccccc12)NC(=O)[C@H](CC(C)C)NC(=O)[C@H](CCCCN)NC(=O)CNC(=O)[C@H](CC(C)C)NC(=O)[C@@H](NC(=O)[C@@H](N)CC(C)C)[C@@H](C)CC)C(C)C)C(=O)N[C@@H](Cc1ccccc1)C(N)=O [LILGKLWKGVKSIF]
